Values of other authors, collected in patent US20100104643A1, “PHARMACEUTICAL COMPOSITIONS” (ZYSIS LIMITED, priority 2007, published 2010).

Tests used:
[1] = trimipramine antidepressant treatment
[2] = for dose-concentration relationship: plasma concentrations

Row | upper limit of the therapeutic trough plasma concentrations [1] [mg/L] | bioavailability difference between poor and ultra-fast metabolizers ([2]; CYP2D6 genotypes) [fold] | mean systemic clearances, ultrarapid metabolizers of CYP2D6 substrates versus poor metabolizers ([2]; higher in ultrarapid than in poor metabolizers) [fold] | total oral clearance, low extreme ([2]; poor metabolizer group) [L/h] | difference in total oral clearance ([2]; poor versus ultrarapid CYP2D6 metabolizers) | total oral clearance, high extreme ([2]; ultrarapid metabolizer group) [L/h] | SMILES | dose-concentration relationship [2]
1 | 0.38 |  |  |  |  |  | CNCC(C)CN1c2ccccc2CCc2ccccc21 (stereo not drawn) [desmethyltrimipramine] | deviation from linearity within the therapeutic dose range
2 | 0.24 | 6 | 2.5 | 3.5 | about 15 fold | 712.6 | CC(CN(C)C)CN1c2ccccc2CCc2ccccc21 (stereo not drawn) [trimipramine, 10,11-Dihydro-5-(3-dimethylamino-2-methylpropyl)-5H-dibenz(b,f) azepine] | linear dose-concentration relationship for doses up to 150 mg
